Active and inactive are the calls of the source. No rule for the calls is given here.
Test system: rodent carcinogenicity bioassays, tumor incidence
Experiment: CCRIS carcinogenicity studies
Method in brief: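 Archive of carcinogenicity, mutagenicity, tumor promotion and tumor inhibition results drawn from journals, NCI reports and other sources, expert-reviewed; covers 1985-2011 and is no longer updated.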

**Q.** How did the carcinogen call (Species: RAT, Strain/Sex: SPRAGUE-DAWLEY/FEMALE, Route: SUBCUTANEOUS, Dose: 0, 200 UMOL/KG IN DMSO INTO SUPRASCAPULAR AREA ON DAY 1 OF LIFE FOLLOWED BY 0, 100 UMOL 1/WK AT WK 2-7 THEN O, 200 UMOL/, Dose: 0, 200 UMOL/KG IN DMSO INTO SUPRASCAPULAR AREA ON DAY 1 OF LIFE FOLLOWED BY 0, 100 UMOL 1/WK AT WK 2-7 THEN O, 200 UMOL/) turn out when `c1ccc2c(c1)ccc1ncccc12` was run?
**A.** inactive; negative

**Q.** And the carcinogen call (Species: RAT, Strain/Sex: SPRAGUE-DAWLEY/MALE, Route: SUBCUTANEOUS, Dose: 0, 200 UMOL/KG IN DMSO INTO SUPRASCAPULAR AREA ON DAY 1 OF LIFE FOLLOWED BY 0, 100 UMOL 1/WK AT WK 2-7 THEN O, 200 UMOL/, Dose: 0, 200 UMOL/KG IN DMSO INTO SUPRASCAPULAR AREA ON DAY 1 OF LIFE FOLLOWED BY 0, 100 UMOL 1/WK AT WK 2-7 THEN O, 200 UMOL/)?
**A.** inactive; negative

**Q.** Which results are given for `Nc1ccc(C(=O)Nc2ccccc2N)cc1`?
**A.** carcinogen call (Species: RAT, Strain/Sex: CD-1/FEMALE, Route: GAVAGE, Dose: 0, 1, 3, 9 (WK 1-25), 6 (WK 26-46), 5 (WK 47-106) MG/KG IN 0.8% METHOCEL (TOTAL VOLUME 0.2-0.5 ML/RAT 2/WK FOR 105 WK (M, Dose: 0, 1, 3, 9 (WK 1-25), 6 (WK 26-46), 5 (WK 47-106) MG/KG IN 0.8% METHOCEL (TOTAL VOLUME 0.2-0.5 ML/RAT 2/WK FOR 105 WK (M, Tumor Site: Type of Lesion: ADRENAL GLAND: TUMOR, OVARIES: TUMOR, VAGINA: TUMOR, Tumor Site: Type of Lesion: ADRENAL GLAND: TUMOR, OVARIES: TUMOR, VAGINA: TUMOR): active; positive; carcinogen call (Species: RAT, Strain/Sex: CD-1/MALE, Route: GAVAGE, Dose: 0, 1, 3, 9 (WK 1-25), 6 (WK 26-46), 5 (WK 47-106) MG/KG IN 0.8% METHOCEL(TOTAL VOLUME 0.2-0.5 ML/RAT 2/WK FOR 105 WK (ME, Dose: 0, 1, 3, 9 (WK 1-25), 6 (WK 26-46), 5 (WK 47-106) MG/KG IN 0.8% METHOCEL(TOTAL VOLUME 0.2-0.5 ML/RAT 2/WK FOR 105 WK (ME, Tumor Site: Type of Lesion: ADRENAL GLAND: TUMOR, TESTES: TUMOR): active; positive

**Q.** With `c1ccc2c(c1)CCc1cc3c4c(ccc3cc1-2)CCCC4` as the compound, how does the carcinogen call (Species: MOUSE, Strain/Sex: SWISS/FEMALE, Route: DERMAL, Dose: 0, 38 UG AS A 0.2% SOLUTION IN ACETONE APPLIED TO INTERSCAPULAR REGION 2/WK FOR 50 WK (STUDY DURATION: 60 WK), Tumor Site: Type of Lesion: SKIN: CARCINOMA) read?
**A.** active; positive

**Q.** With `O=S(=O)(O)OCc1c2ccccc2c2ccc3cccc4ccc1c2c43` as the compound, how does the carcinogen call (Species: MOUSE, Strain/Sex: B6C3F1/MALE, Route: INTRAPERITONEAL, Dose: 0, 0.0025 UMOL/G ONCE AT 12 DAYS OF AGE (STUDY DURATION: 10 MO), Tumor Site: Type of Lesion: LIVER: HEPATOMA) read?
**A.** active; positive

**Q.** And the carcinogen call (Species: RAT, Strain/Sex: SPRAGUE-DAWLEY/FEMALE, Route: SUBCUTANEOUS, Dose: 0, 0.2 UMOL 3/WK FOR 20 DOSES (STUDY DURATION: 52 WK), Tumor Site: Type of Lesion: INJECTION SITE: SARCOMA)?
**A.** active; positive

**Q.** Which results are given for `O=C(O)CN(CCN(CC(=O)O)CC(=O)O)CC(=O)O`?
**A.** carcinogen call (Species: MOUSE, Strain/Sex: B6C3F1/FEMALE, Route: ORAL, Dose: 0, 3750, 7500 PPM IN DIET, Dose: 0, 3750, 7500 PPM IN DIET): inactive; negative; carcinogen call (Species: MOUSE, Strain/Sex: B6C3F1/MALE, Route: ORAL, Dose: 0, 3750, 7500 PPM IN DIET, Dose: 0, 3750, 7500 PPM IN DIET): inactive; negative; carcinogen call (Species: RAT, Strain/Sex: F344/FEMALE, Route: ORAL, Dose: 0, 3750, 7500 PPM IN DIET, Dose: 0, 3750, 7500 PPM IN DIET): inactive; negative; carcinogen call (Species: RAT, Strain/Sex: F344/MALE, Route: ORAL, Dose: 0, 3750, 7500 PPM IN DIET, Dose: 0, 3750, 7500 PPM IN DIET): inactive; negative

**Q.** What does the source list for `CCCCCN(CCCCC)N=O`?
**A.** carcinogen call (Species: RAT, Strain/Sex: WISTAR/FEMALE, Route: SUBCUTANEOUS, Dose: 0, 62.5, 125, 250 MG/KG BW 1/WK FOR 25 WK (STUDY DURATION: 1 YR), Dose: 0, 62.5, 125, 250 MG/KG BW 1/WK FOR 25 WK (STUDY DURATION: 1 YR), Tumor Site: Type of Lesion: NASAL CAVITY: POLYPOID ADENOMA, LUNG: BRONCHIOALVEOLAR ADENOMA): active; positive; carcinogen call (Species: RAT, Strain/Sex: WISTAR/MALE, Route: SUBCUTANEOUS, Dose: 0, 62.5, 125, 250 MG/KG BW 1/WK FOR 25 WK (STUDY DURATION: 1 YR), Dose: 0, 62.5, 125, 250 MG/KG BW 1/WK FOR 25 WK (STUDY DURATION: 1 YR), Tumor Site: Type of Lesion: NASAL CAVITY: POLYPOID ADENOMA, LUNG: BRONCHIOALVEOLAR ADENOCARCINOMA, BRONCHIOALVEOLAR ADENOMA): active; positive

**Q.** Which carcinogen call (Species: RAT, Route: INHALATION, Tumor Site: Type of Lesion: LIVER) does the source give for `CC(C)[N+](=O)[O-]` here?
**A.** active; positive

**Q.** Which results are given for `O=S(=O)([O-])[O-].[O]=[V+2]`?
**A.** carcinogen call (Species: MOUSE, Strain/Sex: SWISS/FEMALE, Route: ORAL, Dose: 0, 5 PPM IN DRINKING WATER FOR DURATION OF STUDY (STUDY DURATION: LIFE SPAN)): inactive; negative; carcinogen call (Species: MOUSE, Strain/Sex: SWISS/MALE, Route: ORAL, Dose: 0, 5 PPM IN DRINKING WATER FOR DURATION OF STUDY (STUDY DURATION: LIFE SPAN)): inactive; negative

**Q.** How did the carcinogen call (Species: MOUSE, Strain/Sex: B6C3F1/FEMALE, Route: INHALATION, Dose: 0, 150, 500, 1500 PPM IN AIR 6 HR/D 5 D/WK FOR 24 MO (STUDY DURATION: 24 MO), Dose: 0, 150, 500, 1500 PPM IN AIR 6 HR/D 5 D/WK FOR 24 MO (STUDY DURATION: 24 MO)) turn out when `CC(Cl)(Cl)Cl` was run?
**A.** inactive; negative

**Q.** What about the carcinogen call (Species: MOUSE, Strain/Sex: B6C3F1/MALE, Route: INHALATION, Dose: 0, 150, 500, 1500 PPM IN AIR 6 HR/D 5 D/WK FOR 24 MO (STUDY DURATION: 24 MO), Dose: 0, 150, 500, 1500 PPM IN AIR 6 HR/D 5 D/WK FOR 24 MO (STUDY DURATION: 24 MO)) of the same compound?
**A.** inactive; negative

**Q.** And the carcinogen call (Species: RAT, Strain/Sex: F344/FEMALE, Route: INHALATION, Dose: 0, 150, 500, 1500 PPM IN AIR 6 HR/D 5 D/WK FOR 24 MO (STUDY DURATION: 24 MO), Dose: 0, 150, 500, 1500 PPM IN AIR 6 HR/D 5 D/WK FOR 24 MO (STUDY DURATION: 24 MO))?
**A.** inactive; negative

**Q.** And the carcinogen call (Species: RAT, Strain/Sex: F344/MALE, Route: INHALATION, Dose: 0, 150, 500, 1500 PPM IN AIR 6 HR/D 5 D/WK FOR 24 MO (STUDY DURATION: 24 MO), Dose: 0, 150, 500, 1500 PPM IN AIR 6 HR/D 5 D/WK FOR 24 MO (STUDY DURATION: 24 MO))?
**A.** inactive; negative

**Q.** How did the carcinogen call (Species: MOUSE, Strain/Sex: BALB/MALE, Route: ORAL, Dose: 300 MG/KG IN DIET FOR 6 OR 11 MO, Tumor Site: Type of Lesion: LIVER: HEPATOMA) turn out when `Clc1cccc(-c2ccc(Cl)c(Cl)c2Cl)c1Cl` was run?
**A.** active; positive

**Q.** What about the carcinogen call (Species: RAT, Strain/Sex: F344/FEMALE, Route: ORAL, Dose: 0, 25, 50, 100 PPM IN DIET FOR 104-105 WK (STUDY DURATION: 104-105 WK), Dose: 0, 25, 50, 100 PPM IN DIET FOR 104-105 WK (STUDY DURATION: 104-105 WK), Tumor Site: Type of Lesion: LIVER: ADENOMA, STOMACH: ADENOMA, ADENOCARCINOMA) of the same compound?
**A.** equivocal

**Q.** And the carcinogen call (Species: RAT, Strain/Sex: F344/MALE, Route: ORAL, Dose: 0, 25, 50, 100 PPM IN DIET FOR 104-105 WK (STUDY DURATION: 104-105 WK), Dose: 0, 25, 50, 100 PPM IN DIET FOR 104-105 WK (STUDY DURATION: 104-105 WK), Tumor Site: Type of Lesion: LIVER: HEPATOCELLULAR ADENOMA, HEPATOCELLULAR CARCINOMA, GASTROINTESTINAL SYSTEM: ADENOCARCINOMA OR CARCINOMA)?
**A.** equivocal

**Q.** And the carcinogen call (Species: RAT, Strain/Sex: SPRAGUE-DAWLEY/FEMALE, Route: ORAL, Dose: 0, 25, 50, 100 PPM IN DIET FOR THE DURATION OF STUDY (STUDY DURATION: 24 MO), Dose: 0, 25, 50, 100 PPM IN DIET FOR THE DURATION OF STUDY (STUDY DURATION: 24 MO), Tumor Site: Type of Lesion: LIVER: TUMOR)?
**A.** active; positive

**Q.** And the carcinogen call (Species: RAT, Strain/Sex: SPRAGUE-DAWLEY/MALE, Route: ORAL, Dose: 0, 25, 50, 100 PPM IN DIET FOR THE DURATION OF STUDY (STUDY DURATION: 24 MO), Dose: 0, 25, 50, 100 PPM IN DIET FOR THE DURATION OF STUDY (STUDY DURATION: 24 MO), Tumor Site: Type of Lesion: THYROID GLAND: ADENOMA OR CARCINOMA)?
**A.** active; positive

— PubChem BioAssay AID1259411 (Chemical Carcinogenesis Research Information System (CCRIS), 2018)
